Test results published in PMC10003747, “A Novel Homodimer Peptide–Drug Conjugate Improves the Efficacy of HER2-Positive Breast Cancer Therapy” (International Journal of Molecular Sciences, 2023).

How the values were obtained:
[1] = Stability of the PDC in human serum/plasma by HPLC; format: in vitro ADME; conditions: human serum (methods: human plasma), 37 °C
Excerpt: HP (calcd Mw: 3183.7) was successfully synthesized by using solid-phase peptide synthesis (SPPS), and the peptides were cleaved and purified by HPLC (Figure S2) afterward and verified by using electrospray ionization mass spectrometry examinations (Figure 2a). […] The mass charge ratio (m/z) obtained by the experiment is consistent with the theoretical m/z. […] Polyethylene glycol (PEG) has been widely used to modify small molecules to slow renal clearance and to increase the half-life. It is essential that the PDC be maintained in a steady circulation to prevent pre-release of cytotoxic payloads, resulting in systemic toxicity. […] To assess plasma stability, the PDC was incubated with human serum at 37 °C from 0 to 48 h, and aliquots were taken at different time points and analyzed by using HPLC. […]
To quantify the amount of DOX released from the PDC, 1 mg of the substance was dissolved in 2 mL of ultra-pure water and placed into a dialysis bag (MWCO 1000 Da). […] The samples were analyzed for released DOX concentration using a fluorescence spectrophotometer at 589 nm and the DOX concentration was calculated based on a standard curve. […] After centrifugation at 13,000× g for 10 min, the supernatant was collected and the intact percentage of the PDC was detected by HPLC [19].

[2] = In vitro DOX release from the PDC (dialysis in PBS); format: physicochemical; conditions: fluorescence at 589 nm
Excerpt: (§1) Based on the specific acidic tumor microenvironment (pH5.4–7.0), an acid-responsive linker was designed to undergo acid hydrolysis after cellular uptake, releasing the drug into endosomes or lysosomes to achieve site-specific delivery. It is theoretically possible that a HPD with an acid-sensitive hydrazone bond can display a regulated release behavior when the external pH value is altered. As observed from the drug release profile in Figure 3a, the PDC remains structurally stable in PBS at a pH of 7.4, as only about 35% of DOX is released within 24 h. In contrast, when the pH of PBS is reduced to 5.8, there is an explosive release of DOX in acidic media due to the pH-sensitive hydrolysis of the […] bond between DOX and the EMCH linker. […] Figure 3b illustrates that the cytotoxicity of the PDC and free DOX on SKBR-3 cells augmented with prolonged incubation time. When the equivalent concentration was 1 μM, the viability of SKBR-3 cells in the PDC group was 26.3%. […] To determine if our novel conjugate could enhance the effect of DOX through PEGylation and HER2-receptor-mediated internalization, we tested the cytotoxic effect of the PDC on MCF-7 and SKBR-3 breast cancer cells.
To quantify the amount of DOX released from the PDC, 1 mg of the substance was dissolved in 2 mL of ultra-pure water and placed into a dialysis bag (MWCO 1000 Da). This bag was then transferred to a tube containing 10 mL of PBS solution with varying pH values (7.4 and 5.8). The tube was stirred at 37 °C in the dark and samples of the PBS solution were collected at different intervals. Subsequently, a new 10 mL of PBS was added to the tube after each sample. The samples were analyzed for released DOX concentration using a fluorescence spectrophotometer at 589 nm and the DOX concentration was calculated based on a standard curve. The PDC was incubated with human plasma (final peptide concentration of 50 μM) for 0, 2, 4, 8, 12, 24, and 48 h in order to assess the stability of the conjugate. Then, […] of the solution was mixed with […] of methanol to terminate enzymatic hydrolyses. After centrifugation at 13,000× g for 10 min, the supernatant was collected and the intact percentage of the PDC was detected by HPLC [19].

SKBR-3 cells [3] = experiment: Cytotoxicity assay (CCK8 kit); format: cell-based, human; conditions: for IC50: 48 h incubation, 0 to 1 μM, CCK8, from dose response log curves
Excerpt: as §1
Cultures of SKBR-3 and MCF-7 cells were established in DMEM medium supplemented with 10% fetal bovine serum, 100 U/mL penicillin, and 100 μg/mL streptomycin at 37 °C and 5% CO2. Approximately 1 × 10^5 cells/mL were seeded into culture dishes and incubated overnight. Subsequently, 0.5 mg/mL PDC was added and incubated for 2–8 h in conjunction with an equal amount of free DOX as a control. After washing three times with PBS, Hoechst 33342 and LysoTracker Green DND-26 were added to stain the nucleus and lysosome for 15 min, followed by three additional washes with PBS. Finally, confocal fluorescence images were obtained using a Zeiss 710 system. SKBR-3 cells were seeded in a 96-well culture plate at a density of 5000 cells per well and incubated for 24 h. Afterwards, cytotoxicity investigations were conducted by incubating the cells with the PDC and free DOX (in concentrations from 0 to 1 μM) for 48 h. Then, the CCK8 kit was used to detect cell survival.

SKBR-3 cells [4] = experiment: Cellular uptake and lysosome colocalization by CLSM; format: cell-based, human
Description: To assess the uptake efficiency of the PDC in tumor cells, human breast cancer cell lines SKBR-3 (high expression of HER2) were used as positive cells, and the MCF-7 cell line was used as a negative control. […] Along with the incubation time, DOX escaped from the lysosomes, and brighter red fluorescence was detected in the nuclei after 8 h of incubation (Figure 4a). It has been observed that peptide conjugates in the acidic environment of endosomes/lysosomes undergo hydrolysis at the acid-response hydrazone linker, thereby releasing DOX into cells, which is in line with prior reports. […] The lysosomal escape ability was evaluated by the localization of the PDC and lysosomes in SKBR-3 cells (Figure 4c), evidenced by the separation of red (DOX) and green (LysoTracker) fluorescence.
Cultures of SKBR-3 and MCF-7 cells were established in DMEM medium supplemented with 10% fetal bovine serum, 100 U/mL penicillin, and 100 μg/mL streptomycin at 37 °C and 5% CO2. Approximately 1 × 10^5 cells/mL were seeded into culture dishes and incubated overnight. Subsequently, 0.5 mg/mL PDC was added and incubated for 2–8 h in conjunction with an equal amount of free DOX as a control. […] Finally, confocal fluorescence images were obtained using a Zeiss 710 system. […]

[5] = test system: SKBR-3 xenografted (BALB/c nude) mice; experiment: In vivo anti-tumor study; conditions: SKBR-3 xenograft, 5 mg/kg equivalent DOX, tail vein, five times every two days, n = 4, day 14
Description: (§2) In vivo anti-tumor studies were evaluated by using SKBR-3 xenografted (BALB/c nude) mice treated with the PDC, free DOX, or saline. […] Additionally, histological examination of the tumors was performed. […] A TUNEL assay indicated a greater number of apoptotic cells after treatments with the PDC group compared to the free DOX group and reduced the offtarget effects (Figure 5d).
In this study, a total of 12 female BALB/c mice (22–24 g) were used, and all animal experiments were conducted in compliance with the ethical guidelines approved by the ethics committee of Fujian Medical University. Approximately 2 × 10^6 SKBR-3 cells were injected subcutaneously in the right hind limb of the nude mice. Upon the tumor reaching a volume of around 100 mm^3, the mice were randomly allocated into three groups (n = 4) and administered through the tail vein with PBS, free DOX solution, and PDC solution (5 mg/kg equivalent DOX), respectively, five times every two days. Saline was used as a negative control. After each administration, the size and weight of the tumor were assessed. Subsequently, the mice were euthanized, and their tumor tissues and other major organs were dissected and preserved with 4% formaldehyde. […]

BALB/c nude mice = experiment: In vivo safety: body weight and H&E staining of major organs; conditions: 5 mg/kg equivalent DOX i.v., five times every two days; for body weight change versus PBS group: n = 4; for H&E histology of major organs: compared with PBS group
Description: as §2
Good biocompatibility and the acceptable biosafety of a drug are essential for its biological application. […] The PDC had higher in vivo anti-tumor efficacy than DOX without apparent toxicities.
In this study, a total of 12 female BALB/c mice (22–24 g) were used, and all animal experiments were conducted in compliance with the ethical guidelines approved by the ethics committee of Fujian Medical University. Approximately 2 × 10^6 SKBR-3 cells were injected subcutaneously in the right hind limb of the nude mice. Upon the tumor reaching a volume of around 100 mm^3, the mice were randomly allocated into three groups (n = 4) and administered through the tail vein with PBS, free DOX solution, and PDC solution (5 mg/kg equivalent DOX), respectively, five times every two days. Saline was used as a negative control. After each administration, the size and weight of the tumor were assessed. Subsequently, the mice were euthanized, and their tumor tissues and other major organs were dissected and preserved with 4% formaldehyde. Paraffin sections were then produced, and the fixed paraffin-embedded tissues were sliced into 5 μm sections for hematoxylin and eosin (H&E) and TUNEL (terminal deoxynucleotidyl transferase dUTP nick-end labeling) analyses.

Row | Structure (SMILES) | half-life at 50 μM ([1]; 50 μM final peptide concentration, 0-48 h, methanol quench, intact PDC by HPLC, read-out: half-life of the conjugate (converted)) [h] | remaining at 48 h, 50 μM ([1]; 50 μM, 48 h incubation, HPLC, read-out: intact conjugate remaining at 48 h) [%] | DOX released within 8 h, pH 5.8 ([2]; PBS pH 5.8, 37 °C, dialysis MWCO 1000 Da, 8 h) [%] | DOX released within 24 h, pH 5.8 ([2]; PBS pH 5.8, 37 °C, dialysis MWCO 1000 Da, 24 h) [%] | DOX released, pH 5.8, start of the rise ([2]; PBS pH 5.8, 37 °C, dialysis MWCO 1000 Da, early value, time not given) | DOX released within 24 h, pH 7.4 ([2]; PBS pH 7.4, 37 °C, dark, dialysis bag MWCO 1000 Da, 1 mg in 2 mL water against 10 mL PBS, 24 h) | cytotoxic effect on SKBR-3 versus MCF-7 breast cancer cells (SKBR-3 cells [3]; 48 h, Figure S4, HER2 high-expression SKBR-3 vs MCF-7) | IC50 of the PDC relative to free DOX (SKBR-3 cells [3]; SKBR-3 cells, 48 h) | IC50 (SKBR-3 cells [3]; SKBR-3 cells) [nM] | viability of SKBR-3 cells (SKBR-3 cells [3]; equivalent concentration 1 μM, 48 h, CCK8) [%] | uptake of the PDC in SKBR-3 versus MCF-7 cells (SKBR-3 cells [4]; CLSM, Figure S3, HER2 negative MCF-7) | cellular uptake relative to free DOX (SKBR-3 cells [4]; HER2-positive SKBR-3 cells) [times] | reduction of tumor growth on day 14 post treatment [5] [%] | body weight change versus PBS group (BALB/c nude mice) | H&E histology of major organs (BALB/c nude mice)
1 | COc1cccc2c1C(=O)c1c(O)c3c(c(O)c1C2=O)C[C@@](O)(C(CO)=NNC(=O)CCCCCN1C(=O)CC(SC[C@H](NC(=O)CCOCCOCCOCCOCCNC(=O)[C@H](CCCCNC(=O)CCOCCOCCOCCOCCNC(=O)[C@H](CCCCN)NC(=O)[C@H](CC(C)C)NC(=O)[C@H](CCCNC(=N)N)NC(=O)[C@H](CC(C)C)NC(=O)[C@H](CCC(=O)O)NC(=O)[C@H](Cc2c[nH]c4ccccc24)NC(=O)[C@H](CC(N)=O)NC(=O)[C@@H](N)CCCNC(=N)N)NC(=O)CCOCCOCCOCCOCCNC(=O)[C@H](CCCCN)NC(=O)[C@H](CC(C)C)NC(=O)[C@H](CCCNC(=N)N)NC(=O)[C@H](CC(C)C)NC(=O)[C@H](CCC(=O)O)NC(=O)[C@H](Cc2c[nH]c4ccccc24)NC(=O)[C@H](CC(N)=O)NC(=O)[C@@H](N)CCCNC(=N)N)C(=O)O)C1=O)C[C@@H]3O[C@H]1C[C@H](N)[C@H](O)[C@H](C)O1 (stereo partly shown) [PDC] | ~24 | ~15 | 78 | ~90 | around 20% | about 35% | significantly more cytotoxic in the HER2 high-expression cell lines | three times less | 143 | 26.3 | higher uptake rate | 2.9 | 51.1 ± 3.1 | no noteworthy distinction in body weight | no morphological aberrations in organ tissues
2 | COc1cccc2c1C(=O)c1c(O)c3c(c(O)c1C2=O)C[C@@](O)(C(=O)CO)C[C@@H]3O[C@H]1C[C@H](N)[C@H](O)[C@H](C)O1.Cl [free DOX, doxorubicin hydrochloride, reference compound] |  |  |  |  |  |  |  |  | 410 |  |  |  | 23.13 ± 2.4 | significantly decreased | clear cardiotoxicities
